Data from PubChem BioAssay AID256 (DTP/NCI, 2004).
Several values for one entry are separate records, joined by “and”; a condition that tells them apart may be missing. Equal values may be shown once. Inconclusive results and toxic doses are left out.

Tested on: CD2F1 mice, L1210 leukemia ip, survival T/C
Assay: NCI In Vivo Anticancer Drug Screen. Data for tumor model L1210 Leukemia (intraperitoneal) in CD2F1 (CDF1) mice
Conditions: higher = longer survival
How it was run: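 Antitumor effect is scored in animals hosting a serially transplanted tumor. Values compare compound-dosed animals against vehicle-only controls as a simple quotient.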

[1] = endpoint: mean survival time, dose: 50.0 mg/kg/injection, schedule: Q01DX001 (ip), vehicle: saline with Tween-80
[2] = endpoint: mean survival time, dose: 100.0 mg/kg/injection, schedule: Q01DX001 (ip), vehicle: saline with Tween-80
[3] = endpoint: mean survival time, dose: 200.0 mg/kg/injection, schedule: Q01DX001 (ip), vehicle: saline with Tween-80
[4] = endpoint: mean survival time, dose: 25.0 mg/kg/injection, schedule: Q01DX001 (ip), vehicle: carboxymethylcellulose (CMC)
[5] = endpoint: mean survival time, dose: 50.0 mg/kg/injection, schedule: Q01DX001 (ip), vehicle: carboxymethylcellulose (CMC)
[6] = endpoint: mean survival time, dose: 100.0 mg/kg/injection, schedule: Q01DX001 (ip), vehicle: carboxymethylcellulose (CMC)
[7] = endpoint: mean survival time, dose: 200.0 mg/kg/injection, schedule: Q01DX001 (ip), vehicle: carboxymethylcellulose (CMC)
[8] = endpoint: mean survival time, dose: 100.0 mg/kg/injection, schedule: Q04DX003 (ip), vehicle: saline with Tween-80
[9] = endpoint: mean survival time, dose: 200.0 mg/kg/injection, schedule: Q04DX003 (ip), vehicle: saline with Tween-80
[10] = endpoint: mean survival time, dose: 400.0 mg/kg/injection, schedule: Q04DX003 (ip), vehicle: saline with Tween-80
[11] = endpoint: mean survival time, dose: 100.0 mg/kg/injection, schedule: Q01DX009 (ip), vehicle: saline with Tween-80
[12] = endpoint: mean survival time, dose: 200.0 mg/kg/injection, schedule: Q01DX009 (ip), vehicle: saline with Tween-80
[13] = endpoint: mean survival time, dose: 50.0 mg/kg/injection, schedule: Q01DX009 (ip), vehicle: saline with Tween-80
[14] = endpoint: mean survival time, dose: 100.0 mg/kg/injection, schedule: Q01DX009 (ip), vehicle: saline sonified

Compound: CC(=O)Nc1ncc2ccccc2c1-c1ccc(NC(=O)CCCl)cc1
- T/C (endpoint: mean survival time, dose: 25.0 mg/kg/injection, schedule: Q04DX003 (ip), vehicle: DMSO): 101 % of control
- T/C (endpoint: mean survival time, dose: 50.0 mg/kg/injection, schedule: Q04DX003 (ip), vehicle: DMSO): 96 % of control
- T/C (endpoint: mean survival time, dose: 100.0 mg/kg/injection, schedule: Q04DX003 (ip), vehicle: DMSO): 94 % of control
- T/C (endpoint: mean survival time, dose: 200.0 mg/kg/injection, schedule: Q04DX003 (ip), vehicle: DMSO): 91 % of control
- T/C (endpoint: mean survival time, dose: 400.0 mg/kg/injection, schedule: Q04DX003 (ip), vehicle: DMSO): 94 % of control

Compound: COC1OC(CO)C(O)C1n1cnc2c(=O)[nH]c(N)nc21 (stereo unspecified)
- T/C [1]: 97 % of control
- T/C [2]: 95 % of control
- T/C [3]: 97 % of control

Compound: OC12C3CC4C5C3C3(Cl)C(Cl)(Cl)C5(Cl)C(Cl)(C41)C23Cl (stereo unspecified)
- T/C (endpoint: mean survival time, dose: 1.25 mg/kg/injection, schedule: Q01DX001 (ip), vehicle: other): 107 % of control
- T/C (endpoint: mean survival time, dose: 2.5 mg/kg/injection, schedule: Q01DX001 (ip), vehicle: other): 103 % of control
- T/C (endpoint: mean survival time, dose: 5.0 mg/kg/injection, schedule: Q01DX001 (ip), vehicle: other): 100 % of control

Compound: COP(=O)(OC)OCC1OC(n2ccc(N)nc2=O)C(O)C1O (stereo unspecified)
- T/C (endpoint: median survival time, dose: 12.5 mg/kg/injection, schedule: Q01DX005 (ip), vehicle: saline): 111 % of control
- T/C (endpoint: median survival time, dose: 25.0 mg/kg/injection, schedule: Q01DX005 (ip), vehicle: saline): 104 % of control
- T/C (endpoint: median survival time, dose: 50.0 mg/kg/injection, schedule: Q01DX005 (ip), vehicle: saline): 110 % of control
- T/C (endpoint: median survival time, dose: 100.0 mg/kg/injection, schedule: Q01DX005 (ip), vehicle: saline): 115 % of control and 108 % of control
- T/C (endpoint: median survival time, dose: 200.0 mg/kg/injection, schedule: Q01DX005 (ip), vehicle: saline): 113 % of control

Compound: Cc1cn(C2CC(O)C(COC(=O)Nc3cccc4ccccc34)O2)c(=O)[nH]c1=O (stereo unspecified)
- T/C (endpoint: mean survival time, dose: 12.5 mg/kg/injection, schedule: Q01DX005 (ip), vehicle: other): 100 % of control
- T/C (endpoint: mean survival time, dose: 25.0 mg/kg/injection, schedule: Q01DX005 (ip), vehicle: other): 100 % of control
- T/C (endpoint: mean survival time, dose: 50.0 mg/kg/injection, schedule: Q01DX005 (ip), vehicle: other): 90 % of control
- T/C (endpoint: mean survival time, dose: 100.0 mg/kg/injection, schedule: Q01DX005 (ip), vehicle: other): 94 % of control
- T/C (endpoint: mean survival time, dose: 200.0 mg/kg/injection, schedule: Q01DX005 (ip), vehicle: other): 94 % of control

Compound: CCCCCNc1ncnc2c(C)[nH]nc12
- T/C (endpoint: median survival time, dose: 25.0 mg/kg/injection, schedule: Q01DX009 (ip), vehicle: Klucel (hydroxypropylcellulose) (HPC)): 101 % of control
- T/C (endpoint: median survival time, dose: 50.0 mg/kg/injection, schedule: Q01DX009 (ip), vehicle: Klucel (hydroxypropylcellulose) (HPC)): 108 % of control
- T/C (endpoint: median survival time, dose: 100.0 mg/kg/injection, schedule: Q01DX009 (ip), vehicle: Klucel (hydroxypropylcellulose) (HPC)): 100 % of control
- T/C (endpoint: median survival time, dose: 200.0 mg/kg/injection, schedule: Q01DX009 (ip), vehicle: Klucel (hydroxypropylcellulose) (HPC)): 96 % of control

Compound: CNC(=O)n1ncnc1N
- T/C (endpoint: mean survival time, dose: 12.5 mg/kg/injection, schedule: Q01DX001 (ip), vehicle: carboxymethylcellulose (CMC)): 95 % of control
- T/C [4]: 100 % of control
- T/C [5]: 95 % of control
- T/C [6]: 91 % of control
- T/C [7]: 93 % of control

Compound: COc1ccc(C(O)c2nnc(C(O)c3ccc(OC)cc3)nn2)cc1 (stereo unspecified)
- T/C [8]: 86 % of control
- T/C [9]: 89 % of control
- T/C [10]: 92 % of control

Compound: CCCC(=O)OCC1OC(n2ccc(O)cc2=O)C(O)C1O (stereo unspecified)
- T/C (endpoint: median survival time, dose: 44.0 mg/kg/injection, schedule: Q01DX009 (ip), vehicle: saline + Tween-80 + alcohol): 171 % of control
- T/C (endpoint: median survival time, dose: 67.0 mg/kg/injection, schedule: Q01DX009 (ip), vehicle: saline + Tween-80 + alcohol): 174 % of control
- T/C (endpoint: median survival time, dose: 100.0 mg/kg/injection, schedule: Q01DX009 (ip), vehicle: saline + Tween-80 + alcohol): 168 % of control
- T/C (endpoint: median survival time, dose: 150.0 mg/kg/injection, schedule: Q01DX009 (ip), vehicle: saline + Tween-80 + alcohol): 162 % of control

Compound: O=C1c2ccccc2-c2ccc3c4ccc5c6c(ccc(c7ccc1c2c73)c64)C(=O)c1ccccc1-5
- T/C [11]: 89 % of control
- T/C [8]: 90 % of control
- T/C [12]: 89 % of control
- T/C [9]: 87 % of control
- T/C (endpoint: mean survival time, dose: 400.0 mg/kg/injection, schedule: Q01DX009 (ip), vehicle: saline with Tween-80): 93 % of control
- T/C [10]: 96 % of control

Compound: C[n+]1c(/C=C/c2ccccc2Cl)ccc2ccccc21
- T/C (endpoint: mean survival time, dose: 12.5 mg/kg/injection, schedule: Q01DX009 (ip), vehicle: saline with Tween-80): 94 % of control
- T/C (endpoint: mean survival time, dose: 25.0 mg/kg/injection, schedule: Q01DX009 (ip), vehicle: saline with Tween-80): 100 % of control
- T/C [13]: 96 % of control
- T/C (endpoint: mean survival time, dose: 50.0 mg/kg/injection, schedule: Q04DX003 (ip), vehicle: saline with Tween-80): 95 % of control

Compound: CCN(CC)c1cc(Nc2c3ccc(Cl)cc3nc3cc(Cl)ccc23)ccc1O
- T/C [11]: 102 % of control
- T/C [8]: 97 % of control
- T/C [12]: 104 % of control
- T/C [9]: 100 % of control
- T/C [10]: 117 % of control

Compound: CCCN(CCC)CCCCCCO
- T/C [13]: 98 % of control
- T/C [11]: 98 % of control
- T/C [12]: 97 % of control

Compound: Cc1ccc(S(=O)(=O)c2ccccc2)cc1
- T/C (endpoint: mean survival time, dose: 100.0 mg/kg/injection, schedule: Q01DX009 (ip), vehicle: saline): 88 % of control
- T/C (endpoint: mean survival time, dose: 200.0 mg/kg/injection, schedule: Q01DX009 (ip), vehicle: saline): 87 % of control
- T/C (endpoint: mean survival time, dose: 400.0 mg/kg/injection, schedule: Q01DX009 (ip), vehicle: saline): 92 % of control

Compound: Cc1cc(=O)n(Cc2ccccc2)n1-c1ccccc1
- T/C (endpoint: mean survival time, dose: 25.0 mg/kg/injection, schedule: Q04DX002 (ip), vehicle: saline with Tween-80): 97 % of control
- T/C (endpoint: mean survival time, dose: 50.0 mg/kg/injection, schedule: Q04DX002 (ip), vehicle: saline with Tween-80): 100 % of control
- T/C (endpoint: mean survival time, dose: 100.0 mg/kg/injection, schedule: Q04DX002 (ip), vehicle: saline with Tween-80): 87 % of control
- T/C [8]: 98 % of control

Compound: O=C(Nc1cc(Cl)ccc1Cl)c1ccc(Cl)cc1Cl
- T/C [13]: 92 % of control
- T/C [11]: 87 % of control
- T/C [8]: 90 % of control
- T/C [12]: 92 % of control
- T/C [9]: 88 % of control

Compound: c1ccc2c(c1)ncc1cc3c(cc12)[nH]c1ccccc13
- T/C (endpoint: mean survival time, dose: 100.0 mg/kg/injection, schedule: Q01DX001 (ip), vehicle: other): 96 % of control
- T/C (endpoint: mean survival time, dose: 200.0 mg/kg/injection, schedule: Q01DX001 (ip), vehicle: other): 101 % of control
- T/C (endpoint: mean survival time, dose: 400.0 mg/kg/injection, schedule: Q01DX001 (ip), vehicle: other): 104 % of control

Compound: Cc1cc(C)c(C)c(Br)c1
- T/C [14]: 95 % of control
- T/C [8]: 100 % of control
- T/C [10]: 102 % of control

Compound: CCOC(=O)NC(=S)Nc1ncn[nH]1
- T/C [4]: 102 % of control
- T/C [5]: 97 % of control
- T/C [6]: 97 % of control
- T/C [7]: 93 % of control

Compound: OC(c1ccccc1)(c1ccccc1)C1c2ccccc2-c2[nH]c3ccccc3c21 (stereo unspecified)
- T/C (endpoint: mean survival time, dose: 25.0 mg/kg/injection, schedule: Q01DX001 (ip), vehicle: saline with Tween-80): 96 % of control
- T/C [1]: 93 % of control
- T/C [2]: 89 % of control

Compound: O=C(Nc1ccccc1[N+](=O)[O-])c1ccccc1
- T/C [2]: 97 % of control
- T/C [8]: 102 % of control
- T/C [3]: 100 % of control
- T/C [9]: 105 % of control
- T/C (endpoint: mean survival time, dose: 400.0 mg/kg/injection, schedule: Q01DX001 (ip), vehicle: saline with Tween-80): 95 % of control
- T/C [10]: 97 % of control

Compound: CN1CCN(CCSSCCN2CCN(C)CC2)CC1
- T/C (endpoint: mean survival time, dose: 50.0 mg/kg/injection, schedule: Q01DX009 (ip), vehicle: saline sonified): 97 % of control
- T/C [14]: 97 % of control
- T/C [8]: 105 % of control
- T/C (endpoint: mean survival time, dose: 200.0 mg/kg/injection, schedule: Q01DX009 (ip), vehicle: saline sonified): 98 % of control
- T/C [9]: 100 % of control

Compound: CCOC/C(C)=C/Cl
- T/C (endpoint: mean survival time, dose: 100.0 mg/kg/injection, schedule: Q01DX009 (ip), vehicle: acetone): 106 % of control
- T/C (endpoint: mean survival time, dose: 200.0 mg/kg/injection, schedule: Q01DX009 (ip), vehicle: acetone): 103 % of control

Compound: CCC1(C)CC(=O)NC(=O)C1
- T/C (endpoint: mean survival time, dose: 2.5 mg/kg/injection, schedule: Q01DX009 (ip), vehicle: saline with Tween-80): 97 % of control
- T/C (endpoint: mean survival time, dose: 5.0 mg/kg/injection, schedule: Q01DX009 (ip), vehicle: saline with Tween-80): 100 % of control
- T/C (endpoint: mean survival time, dose: 10.0 mg/kg/injection, schedule: Q01DX009 (ip), vehicle: saline with Tween-80): 94 % of control
